Consider 32 compounds from patent US9957271B2, “Substituted bicyclic aza-heterocycles and analogues as sirtuin modulators” (GlaxoSmithKline, LLC, priority 2012, dated 2018).

The target in this assay is T1, SIRT1 (Homo sapiens, UniProt Q96EB6).
T1 sequence (Q96EB6 1-747): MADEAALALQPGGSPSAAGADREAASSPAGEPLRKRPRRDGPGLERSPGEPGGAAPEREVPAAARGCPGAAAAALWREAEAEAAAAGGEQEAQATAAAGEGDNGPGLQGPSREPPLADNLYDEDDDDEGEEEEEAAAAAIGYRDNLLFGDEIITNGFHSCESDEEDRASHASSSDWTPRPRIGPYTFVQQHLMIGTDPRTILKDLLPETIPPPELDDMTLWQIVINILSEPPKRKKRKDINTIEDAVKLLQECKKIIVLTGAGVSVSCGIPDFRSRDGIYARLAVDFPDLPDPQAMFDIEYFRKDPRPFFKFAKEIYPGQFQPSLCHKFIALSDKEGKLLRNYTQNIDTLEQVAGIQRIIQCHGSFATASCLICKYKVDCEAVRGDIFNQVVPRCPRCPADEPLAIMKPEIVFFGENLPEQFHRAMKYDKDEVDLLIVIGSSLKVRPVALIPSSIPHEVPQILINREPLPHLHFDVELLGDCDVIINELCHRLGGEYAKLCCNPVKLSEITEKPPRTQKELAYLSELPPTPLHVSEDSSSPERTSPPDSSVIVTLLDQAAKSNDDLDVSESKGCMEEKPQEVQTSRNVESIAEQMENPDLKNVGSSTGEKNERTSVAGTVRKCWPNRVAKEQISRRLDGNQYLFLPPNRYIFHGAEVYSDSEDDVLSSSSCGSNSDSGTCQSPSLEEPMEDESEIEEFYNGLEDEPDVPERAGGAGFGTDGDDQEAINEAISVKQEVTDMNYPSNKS
Description: TAMRA based mass spectrometry assay of SIRT1 activity. The format is biochemical. The note with it: TAMRA peptide substrate; for TAMRA EC1.5 (μM): concentration of test compound giving 150% activation of SIRT1; for Emax: percent maximum fold activation of SIRT1, read-out: TAMRA % Fold Act. An excerpt: Mass spectrometry based assays were used to identify modulators of SIRT1 activity. The TAMRA based assay utilized a peptide having 20 amino acid residues as follows: Ac-EE-K(biotin)-[…](Ac)NleSTEG-K(5TMR)-EE-NH2 (SEQ ID NO: 1), wherein K(Ac) is an acetylated lysine residue and Nle is a norleucine. The peptide was labeled with the fluorophore 5TMR (excitation 540 nm/emission 580 nm) at the C-terminus. The sequence of the peptide substrate was based on p53 with several modifications. In addition, the methionine residue naturally present in the sequence was replaced with the norleucine because the methionine may be susceptible to oxidation during synthesis and purification. The Trp based assay utilized a peptide having an amino acid residues as follows: Ac-R-H-K-K(Ac)-W-NH2 (SEQ ID NO: 2).
The TAMRA based mass spectrometry assay was conducted as follows: 0.5 μM peptide substrate and 120 μM βNAD^+ was incubated with 10 nM SIRT1 for 25 minutes at 25° C. in a reaction buffer (50 mM Tris-acetate pH 8, 137 mM NaCl, 2.7 mM KCl, 1 mM MgCl2, 5 mM DTT, 0.05% BSA). The SIRT1 protein was obtained by cloning the SirT1 gene into a T7-promoter containing vector, which was then transformed and expressed in BL21(DE3) bacterial cells. Test compound was added at varying concentrations to this reaction mixture and the resulting reactions were monitored. After the 25 minute incubation with SIRT1, 10 μL of 10% formic acid was added to stop the reaction. The resulting reactions were sealed and frozen for later mass spec analysis. Determination of the amount of deacetylated substrate peptide formed (or, alternatively, the amount of O-acetyl-ADP-ribose (OAADPR) generated) by the sirtuin-mediated NAD-dependent deacetylation reaction allowed for the precise measurement of relative SIRT1 activity in the presence of varying concentrations of the test compound versus control reactions lacking the test compound.
A control for inhibition of sirtuin activity was conducted by adding 1 μL of 500 mM nicotinamide as a negative control at the start of the reaction (e.g., permits determination of maximum sirtuin inhibition). A control for activation of sirtuin activity was conducted using 10 nM of sirtuin protein, with 1 μL of DMSO in place of compound, to determine the amount of deacetylation of the substrate at a given time point within the linear range of the assay. This time point was the same as that used for test compounds and, within the linear range, the endpoint represents a change in velocity.
For the above assay, SIRT1 protein was expressed and purified as follows. The SirT1 gene was cloned into a T7-promoter containing vector and transformed into BL21(DE3). The protein was expressed by induction with 1 mM IPTG as an N-terminal His-tag fusion protein at 18° C. overnight and harvested at 30,000×g. Cells were lysed with lysozyme in lysis buffer (50 mM Tris-HCl, 2 mM Tris[2-carboxyethyl]phosphine (TCEP), 10 μM ZnCl2, 200 mM NaCl) and further treated with sonication for […] for complete lysis. The protein was purified over a Ni-NTA column (Amersham) and fractions containing pure protein were pooled, concentrated and run over a sizing column (Sephadex S200 26/60 global). The peak containing soluble protein was collected and run on an Ion-exchange column (MonoQ). Gradient elution (200 mM-500 mM NaCl) yielded pure protein. This protein was concentrated and dialyzed against dialysis buffer (20 mM Tris-HCl, 2 mM TCEP) overnight. The protein was aliquoted and frozen at −80° C. until further use.

In the case of `O=C(NCc1cccnc1)c1cnc2ccc(-c3cccc(C(F)(F)F)c3)nn12` [Compound 1], the “TAMRA EC1.5 (μM)” value is “B (EC1.5 1-25 μM)” and the Emax is below 350%.
In the same order, the values of `O=C(Nc1nccs1)c1cnc2ccc(-c3cccc(C(F)(F)F)c3)nn12` [Compound 3] are “B (EC1.5 1-25 μM)” and below 350%.
Regarding `O=C(Nc1ccccn1)c1cnc2ccc(-c3cccc(C(F)(F)F)c3)nn12` [Compound 4, N-(pyridin-2-yl)-6-(3-(trifluoromethyl)phenyl)imidazo[1,2-b]pyridazine-3-carboxamide], the “TAMRA EC1.5 (μM)” value is on record as “B (EC1.5 1-25 μM)” and the Emax was below 350%.
`O=C(Nc1nc(CN2CCOCC2)cs1)c1cnc2ccc(-c3cccc(C(F)(F)F)c3)nn12` [Compound 6]: the “TAMRA EC1.5 (μM)” value is recorded as “A (EC1.5<1 μM)” and the Emax is at least 350%.
With `O=C(Nc1nccs1)c1cnc2ccc(-c3cccc(OC(F)(F)F)c3)nn12` [Compound 7], the “TAMRA EC1.5 (μM)” value is recorded as “B (EC1.5 1-25 μM)” and the Emax is below 350%.
For `O=C(Nc1nccs1)c1cnc2ccc(-c3cccc(N4CCOCC4)c3)nn12` [Compound 9] the same measures were “C (EC1.5>25 μM)” and below 350%.
In the same order, the values of `O=C(Nc1ccccn1)c1cnc2ccc(-c3cccc(N4CCOCC4)c3)nn12` [Compound 10] are “B (EC1.5 1-25 μM)” and below 350%.
For `CS(=O)(=O)c1cccc(-c2ccc3ncc(C(=O)Nc4ccccn4)n3n2)c1` [Compound 12] the same measures were “C (EC1.5>25 μM)” and below 350%.
Regarding `O=C(Nc1nccs1)c1cnc2ccc(-c3ccccc3OC(F)(F)F)nn12` [Compound 13], the “TAMRA EC1.5 (μM)” value is given as “A (EC1.5<1 μM)” and the Emax is at least 350%.
Consider `O=C(Nc1nccs1)c1cnc2ccc(-c3ccccc3C(F)(F)F)nn12` [Compound 15], for which the “TAMRA EC1.5 (μM)” value is on record as “B (EC1.5 1-25 μM)” and the Emax was at least 350%.
In the case of `O=C(Nc1ccccn1)c1cnc2ccc(-c3ccccc3C(F)(F)F)nn12` [Compound 16], the “TAMRA EC1.5 (μM)” value is recorded as “A (EC1.5<1 μM)” and the Emax is at least 350%.
For `O=C(Nc1ccncn1)c1cnc2ccc(-c3cccc(C(F)(F)F)c3)nn12` [Compound 18] the same measures were “B (EC1.5 1-25 μM)” and below 350%.
On to `O=C(Nc1cccc(CN2CCOCC2)n1)c1cnc2ccc(-c3ccccc3C(F)(F)F)nn12` [Compound 19, N-(6-(morpholinomethyl)pyridin-2-yl)-6-(2-(trifluoromethyl)phenyl)imidazo[1,2-b]pyridazine-3-carboxamide], for which the “TAMRA EC1.5 (μM)” value was “A (EC1.5<1 μM)” and the Emax was at least 350%.
As for `O=C(Nc1cccc(N2CCOCC2)n1)c1cnc2ccc(-c3ccccc3C(F)(F)F)nn12` [Compound 21], the “TAMRA EC1.5 (μM)” value was “A (EC1.5<1 μM)” and the Emax is at least 350%.
Take `O=C(Nc1cccc(N2CCCC2)n1)c1cnc2ccc(-c3ccccc3C(F)(F)F)nn12` [Compound 22]: the “TAMRA EC1.5 (μM)” value was “A (EC1.5<1 μM)” and the Emax is at least 350%.
For `O=C(Nc1ccnc(N2CCOCC2)c1)c1cnc2ccc(-c3ccccc3C(F)(F)F)nn12` [Compound 24] the same measures were “B (EC1.5 1-25 μM)” and at least 350%.
For `O=C(Nc1nc(CN2CCOCC2)cs1)c1cnc2ccc(-c3cccc(Cl)c3)nn12` [Compound 27] the same measures were “A (EC1.5<1 μM)” and at least 350%.
For `O=C(Nc1cccc(CN2CCOCC2)n1)c1cnc2ccc(-c3cccc(F)c3)nn12` [Compound 28] the same measures were “A (EC1.5<1 μM)” and below 350%.
Regarding `O=C(Nc1cccc(CN2CCOCC2)n1)c1cnc2ccc(-c3cc(F)ccc3F)nn12` [Compound 30], the “TAMRA EC1.5 (μM)” value was “B (EC1.5 1-25 μM)” and the Emax is below 350%.
For `O=C(Nc1nc(CN2CCOCC2)cs1)c1cnc2ccc(-c3cc(F)ccc3F)nn12` [Compound 31] the same measures were “B (EC1.5 1-25 μM)” and below 350%.
In the same order, the values of `O=C(Nc1nccs1)c1cnc2ccc(-c3ccccc3C(F)F)nn12` [Compound 33, 6-(2-(difluoromethyl)phenyl)-N-(thiazol-2-yl)imidazo[1,2-b]pyridazine-3-carboxamide] are “B (EC1.5 1-25 μM)” and below 350%.
For `O=C(Nc1cccc(N2CCOCC2)n1)c1cnc2ccc(-c3ccccc3C(F)F)nn12` [Compound 36] the same measures were “A (EC1.5<1 μM)” and at least 350%.
For `O=C(Nc1cccc(N2CCCC2)n1)c1cnc2ccc(-c3ccccc3C(F)F)nn12` [Compound 37], the “TAMRA EC1.5 (μM)” value is given as “A (EC1.5<1 μM)” and the Emax was at least 350%.
As for `O=C(Nc1ccnc(N2CCOCC2)c1)c1cnc2ccc(-c3ccccc3C(F)F)nn12` [Compound 39], the “TAMRA EC1.5 (μM)” value is reported as “A (EC1.5<1 μM)” and the Emax was at least 350%.
For `O=C(Nc1ccnc(N2CCCC2)c1)c1cnc2ccc(-c3ccccc3C(F)F)nn12` [Compound 40] the same measures were “A (EC1.5<1 μM)” and at least 350%.
For `O=C(Nc1nc(CN2CCOCC2)cs1)c1cnc2ccc(-c3ccc(F)cc3F)nn12` [Compound 42] the same measures were “B (EC1.5 1-25 μM)” and below 350%.
For `O=C(Nc1cccc(CN2CCOCC2)n1)c1cnc2ccc(-c3cc(F)cc(F)c3)nn12` [Compound 45] the same measures were “B (EC1.5 1-25 μM)” and below 350%.
For `O=C(Nc1nc(CN2CCOCC2)cs1)c1cnc2ccc(-c3cc(F)cc(F)c3)nn12` [Compound 46], the “TAMRA EC1.5 (μM)” value was “B (EC1.5 1-25 μM)” and the Emax was below 350%.
In the same order, the values of `O=C(Nc1nc(CN2CCOCC2)cs1)c1cnc2ccc(-c3cccc(F)c3F)nn12` [Compound 48] are “B (EC1.5 1-25 μM)” and at least 350%.
For `O=C(Nc1cccc(N2CCC2)n1)c1cnc2ccc(-c3ccccc3C(F)(F)F)nn12` [Compound 49] the same measures were “A (EC1.5<1 μM)” and at least 350%.
Turning to `O=C(Nc1ccnc(N2CCC2)c1)c1cnc2ccc(-c3ccccc3C(F)F)nn12` [Compound 52], the “TAMRA EC1.5 (μM)” value is given as “A (EC1.5<1 μM)” and the Emax was at least 350%.
For `Cc1noc(C)c1-c1ccc2ncc(C(=O)Nc3ccnc(N4CCCC4)c3)n2n1` [Compound 54, 6-(3,5-dimethylisoxazol-4-yl)-N-(2-(pyrrolidin-1-yl)pyridin-4-yl)imidazo[1,2-b]pyridazine-3-carboxamide] the same measures were “C (EC1.5>25 μM)” and below 350%.
